# How the values were obtained:
# BTK = BTK (Homo sapiens, UniProt Q06187); experiment: Inhibitory activity against BTK (ADP-Glo + BTK Kinase enzyme system kit)
# ITK = molecular target: T1, ITK (Homo sapiens, UniProt Q08881); experiment: Inhibitory activity against ITK (ADP-Glo + ITK Kinase enzyme system kit); selectivity BTK vs. ITK; format: biochemical; details: for IC50: ITK enzyme 0.4 ng/uL, ATP 25 uM, luminescence, duplicate; for Selectivity (based on IC50): selectivity for the inhibitory activity of BTK vs. ITK, Equation 1
# T1 construct: purchased Promega Corporation
# T1 sequence (Q08881 1-620): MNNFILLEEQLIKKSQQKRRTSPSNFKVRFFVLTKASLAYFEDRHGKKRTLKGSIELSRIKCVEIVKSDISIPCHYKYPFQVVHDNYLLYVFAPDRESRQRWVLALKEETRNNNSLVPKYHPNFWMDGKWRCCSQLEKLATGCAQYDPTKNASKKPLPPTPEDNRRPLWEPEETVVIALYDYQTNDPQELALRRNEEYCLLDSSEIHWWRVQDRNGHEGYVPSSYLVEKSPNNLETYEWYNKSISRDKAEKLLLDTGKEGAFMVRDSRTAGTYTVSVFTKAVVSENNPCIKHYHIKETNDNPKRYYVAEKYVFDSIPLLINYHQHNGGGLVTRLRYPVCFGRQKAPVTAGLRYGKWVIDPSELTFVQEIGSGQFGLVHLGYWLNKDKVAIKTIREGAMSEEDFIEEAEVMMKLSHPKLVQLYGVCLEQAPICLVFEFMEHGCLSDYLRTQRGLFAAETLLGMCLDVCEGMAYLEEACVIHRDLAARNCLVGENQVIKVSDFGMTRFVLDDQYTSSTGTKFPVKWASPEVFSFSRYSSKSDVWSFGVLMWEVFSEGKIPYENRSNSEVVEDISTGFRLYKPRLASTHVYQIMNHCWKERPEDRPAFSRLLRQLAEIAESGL
# BTK, sequence (Q06187 whole entry): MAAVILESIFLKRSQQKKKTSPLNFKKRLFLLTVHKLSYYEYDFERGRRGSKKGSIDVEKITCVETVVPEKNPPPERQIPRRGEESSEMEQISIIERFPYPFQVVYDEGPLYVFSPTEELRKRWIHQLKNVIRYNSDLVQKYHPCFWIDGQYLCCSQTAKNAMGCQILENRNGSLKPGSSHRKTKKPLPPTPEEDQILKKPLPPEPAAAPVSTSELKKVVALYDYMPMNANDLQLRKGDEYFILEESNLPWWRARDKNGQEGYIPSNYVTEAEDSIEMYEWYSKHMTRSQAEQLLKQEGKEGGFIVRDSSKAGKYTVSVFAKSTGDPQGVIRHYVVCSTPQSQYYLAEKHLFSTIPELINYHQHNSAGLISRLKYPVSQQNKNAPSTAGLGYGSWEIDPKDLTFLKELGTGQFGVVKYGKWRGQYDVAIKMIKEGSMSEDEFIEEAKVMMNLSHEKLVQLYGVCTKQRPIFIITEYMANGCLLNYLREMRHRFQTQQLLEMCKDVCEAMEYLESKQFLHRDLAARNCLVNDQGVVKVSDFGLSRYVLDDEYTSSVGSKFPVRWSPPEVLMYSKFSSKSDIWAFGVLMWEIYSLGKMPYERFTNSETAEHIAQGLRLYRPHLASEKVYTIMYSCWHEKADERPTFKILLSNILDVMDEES
IC50 (BTK),IC50 (ITK),Selectivity (based on IC50) (ITK),Structure (SMILES)
1.5 nM,47.9 nM,31.9,"C=CC(=O)N1C[C@@H]2C[C@H]1[C@@H](n1nc(-c3ccc(C(=O)Nc4cc(F)ccn4)cc3)c3c(N)ncnc31)C2 [Ex. 72, 4-(1-((1S,4R,6S)-2-acryloyl-2-azabicyclo[2.2.1]heptan-6-yl)-4-amino-1H-pyrazolo[3,4-d]pyrimidin-3-yl)-N-(4-fluoropyridin-2-yl)benzamide]"
2.1 nM,123 nM,58.3,"C#CC(=O)N1CC2CC1C(n1nc(-c3cccc(Oc4ccccc4)c3)c3c(N)ncnc31)C2 (stereo not drawn) [Ex. 15, 1-(6-(4-amino-3-(3-phenoxyphenyl)-1H-pyrazolo[3,4-d]pyrimidin-1-yl)-2-azabicyclo[2.2.1]heptan-2-yl)prop-2-yn-1-one]"
3.3 nM,> 1000 nM,>303.0,"C=CC(=O)N1CC2CC1C(n1nc(-c3ccc(Sc4ccccc4)cc3)c3c(N)ncnc31)C2 (stereo not drawn) [Ex. 33, 1-(6-(4-amino-3-(4-(phenylthio)phenyl)-1H-pyrazolo[3,4-d]pyrimidin-1-yl)-2-azabicyclo[2.2.1]heptan-2-yl)prop-2-en-1-one]"
1 nM,> 200 nM,>200,"C=CC(=O)N1C[C@@H]2C[C@H]1[C@@H](n1nc(-c3ccc(C(=O)Nc4ccccn4)cc3OC)c3c(N)ncnc31)C2 [Ex. 81, 4-(1-((1S,4R,6S)-2-acryloyl-2-azabicyclo[2.2.1]heptan-6-yl)-4-amino-1H-pyrazolo[3,4-d]pyrimidin-3-yl)-3-methoxy-N-(pyridin-2-yl)benzamide]"
1.6 nM,60.6 nM,37.9,"C=CC(=O)N1C[C@@H]2C[C@@H]1[C@@H](n1nc(-c3ccc(C(=O)Nc4ccccn4)cc3F)c3c(N)ncnc31)C2 [Ex. 85, 4-(1-((1R,4R,6S)-2-acryloyl-2-azabicyclo[2.2.1]heptan-6-yl)-4-amino-1H-pyrazolo[3,4-d]pyrimidin-3-yl)-3-fluoro-N-(pyridin-2-yl)benzamide]"
1.6 nM,71.5 nM,44.7,"C=CC(=O)N1CC2CC1C(n1nc(-c3ccc(C(=O)Nc4ccccn4)cc3F)c3c(N)ncnc31)C2 (stereo not drawn) [Ex. 64, 4-(1-(2-acryloyl-2-azabicyclo[2.2.1]heptan-6-yl)-4-amino-1H-pyrazolo[3,4-d]pyrimidin-3-yl)-3-fluoro-N-(pyridin-2-yl)benzamide]"
2.8 nM,104 nM,37.1,"C#CC(=O)N1CC2CC1C(n1nc(-c3ccc(C(=O)Nc4ccccn4)cc3)c3c(N)ncnc31)C2 (stereo not drawn) [Ex. 4, 4-(4-amino-1-(2-propioloyl-2-azabicyclo[2.2.1]heptan-6-yl)-1H-pyrazolo[3,4-d]pyrimidin-3-yl)-N-(pyridin-2-yl)benzamide]"
2.7 nM,> 1000 nM,>370.3,"C=CC(=O)N1CC2CC1C(n1nc(-c3ccc(C(=O)Nc4cnccn4)cc3)c3c(N)ncnc31)C2 (stereo not drawn) [Ex. 53, 4-(1-(2-acryloyl-2-azabicyclo[2.2.1]heptan-6-yl)-4-amino-1H-pyrazolo[3,4-d]pyrimidin-3-yl)-N-(pyrazin-2-yl)benzamide]"
4 nM,> 1000 nM,>250,"C=CC(=O)N1CC2CC1C(n1nc(-c3ccc(S(=O)(=O)c4ccccc4)cc3)c3c(N)ncnc31)C2 (stereo not drawn) [Ex. 32, 1-(6-(4-amino-3-(4-(phenylsulfonyl)phenyl)-1H-pyrazolo[3,4-d]pyrimidin-1-yl)-2-azabicyclo[2.2.1]heptan-2-yl)prop-2-en-1-one]"
4.5 nM,> 1000 nM,>222.2,"C=CC(=O)N1CC2CC1C(n1nc(-c3ccc(Oc4cccc(OC)c4)cc3)c3c(N)ncnc31)C2 (stereo not drawn) [Ex. 41, 1-(6-(4-amino-3-(4-(3-methoxyphenoxy)phenyl)-1H-pyrazolo[3,4-d]pyrimidin-1-yl)-2-azabicyclo[2.2.1]heptan-2-yl)prop-2-en-1-one]"

# Reference: patent US10399988B2, “4-aminopyrazolo[3,4-d]pyrimidinylazabicyclo derivatives and pharmaceutical composition comprising the same” (Daewoong Pharmaceutical Co., Ltd., priority 2016, dated 2019)
